Results taken from patent US20100197610A1, “FRUCTOSE 1, 6 BISPHOSPHATE - A NOVEL ANTICONVULSANT DRUG” (Baylor College of Medicine, priority 2007, published 2010).

Experiments:
[1] = Capillary depletion of brain samples (FDP in stripped vs whole cortex); assay type: in vivo, Sprague-Dawley rats
Procedure: Actual levels of FDP were determined by monitoring absorbance of reduced nicotinamide adenine dinucleotide (NADH) and treating the sample with aldolase (EC 4.1.2.13, 45 units mg-1 diluted 1:27 with distilled water), the enzyme which cleaves FDP into dihydroxyacetone phosphate (DAP) and D-glyceraldehyde 3-phosphate (GAP). DAP and GAP are interconverted by the enzyme triosephosphate isomerase (TIM, EC 5.3.3.1, 5290 units mg-1 diluted 1:120 with distilled water). […] After 5 min the absorbance was read 3 times at 340 nm, each reading 3 min apart. The average of these readings is the initial absorbance (Ai). This step removes any DAP or GAP in the sample and determines the baseline absorbance. Aldolase (0.01 ml) was then added and mixed to cleave FDP into DAP and GAP. Nine minutes after addition of the aldolase, the final absorbance (Af) was determined by 3 readings at 340 nm, each 6 minutes apart. The concentration of FDP in the sample was proportional to the difference in the initial and final absorbance. Two moles of NADH are oxidized for each mole of FDP. Blanks and a FDP standard sample were run in parallel with every assay. Each blank had 1.6 ml of the TEA buffer, 1.4 ml water and the mixture of TIM and GDH. […] Levels of FDP in blood were determined per ml, while levels in tissue samples were determined as a function of tissue weight. […]

brain slices = test: Uptake of FDP in brain slices in vitro; assay type: in vitro ADME, Sprague-Dawley rats; conditions: incubation 1 hour in 500 μg ml-1 FDP, then washed
Procedure: (§1) Actual levels of FDP were determined by monitoring absorbance of reduced nicotinamide adenine dinucleotide (NADH) and treating the sample with aldolase (EC 4.1.2.13, 45 units mg-1 diluted 1:27 with distilled water), the enzyme which cleaves FDP into dihydroxyacetone phosphate (DAP) and D-glyceraldehyde 3-phosphate (GAP). DAP and GAP are interconverted by the enzyme triosephosphate isomerase (TIM, EC 5.3.3.1, 5290 units mg-1 diluted 1:120 with distilled water). Glycerol-3-phosphate dehydrogenase (GDH, EC 1.1.1.8, 252 units mg-1 diluted 1:100 with distilled water) catalyzes the reduction of DAP by NADH. […] After 5 min the absorbance was read 3 times at 340 nm, each reading 3 min apart. The average of these readings is the initial absorbance (Ai). This step removes any DAP or GAP in the sample and determines the baseline absorbance. […] Nine minutes after addition of the aldolase, the final absorbance (Af) was determined by 3 readings at 340 nm, each 6 minutes apart. The concentration of FDP in the sample was proportional to the difference in the initial and final absorbance. […] Levels of FDP in blood were determined per ml, while levels in tissue samples were determined as a function of tissue weight.
Additional experiments determined the uptake of FDP in brain slices in vitro. […]

in vivo = test: in vivo; design: species or system rats; conditions: Sprague-Dawley, rat, po
Procedure: as §1, with “NADH. For the FDP measurements, 1.5 ml of tetraethyl ammonium buffer (TEA, 0.4 mol l-1, pH 7.6 with EDTA 40 mmol l-1) was added to 1 ml of the sample in a 4 ml cuvette.” for “NADH.”, “weight. […]” for “weight.”

[2] = Preliminary studies of efficacy, trisodium vs dicalcium salt of FDP; assay type: in vivo
[3] = Markov et al., 2000; cited from earlier work
[4] = intravenous, rats (Nunes et al., 2003); cited from earlier work

## O=C(COP(=O)(O)O)[C@@H](O)[C@H](O)[C@H](O)COP(=O)(O)O [F1,6BP, Fructose-1,6-bisphosphate]
[1]; animals treated with FDP, n=7
  ratio of FDP in the stripped cortex to the FDP in whole cortex: 0.91±0.01
[1]; sacrificed ≦2 hours or more than 12 hours after FDP
  levels of FDP in the endothelial cells compared to control: no difference
Brain slices
  tissue levels of FDP in brain slices: 0.22 ± 0.013 mg/g
In vivo
  concentration at 7 days: 22200 ± 3300 ng/mL
In vivo; 7 days
  FDP levels in the brain: 0.50 ± 0.024 mg/g
[2]
  efficacy of trisodium salt vs dicalcium salt: no difference in efficacy
[3]
  FDP in blood of humans after administration of FDP: 3.39 mg/dL
[4]
  LD50: 1,068 mg/kg
